Laboratory results: PMC9487543 (Antimicrobial Agents and Chemotherapy, 2022)
Like-named read-outs stand apart in the source and are kept apart here. Marks after values point to notes of the source that are not given here.

Tests used:
[1] = cited from earlier work
[2] = Plasma pharmacokinetics in hemodialysis-dependent subjects, On-dialysis vs Off-dialysis periods; assay type: in vivo, human; details: for AUC(0-inf) / Cmax / AUCinf / CL / VZ / t1/2: single 2 h IV infusion 2 g cefepime + 0.5 g taniborbactam; for AUC(0-inf) / Cmax / AUCinf / CL / VZ: geometric mean (geometric CV %); for t1/2: mean (SD)
Protocol: (§1) In addition to the groups enrolled by renal function to study the effect of renal impairment, a group of subjects with ESRD undergoing chronic intermittent hemodialysis were enrolled into a separate group (Group 5; “Dialysis”) to determine the amounts of drug removed by filtration. Hemodialysis used standard commercial dialyzers and membranes. […] A fixed sequence of dialysis timing with respect to dose was used, where the dose was administered prior to dialysis in the first treatment period (“On-dialysis”; Period 1) and administered following dialysis in the second treatment period (“Off-dialysis”; Period 2). […] For the Off-dialysis period, subjects had the SOI begin approximately 6 h after the start of dialysis, which was after the dialysis had been completed.
Additional blood samples, if not already collected by a defined time point, were collected at 1 h after the start of dialysis and again at the end of dialysis.
Human dipotassium ethylenediaminetetraacetic acid plasma samples were processed using protein precipitation prior to assay. Urine samples collected for pharmacokinetic analysis in the study were processed and assayed for only taniborbactam using a validated bioanalytical method. […] Acidified urine and dialysate samples were processed using solid-phase extraction prior to assay. […]
(§2) Estimated plasma pharmacokinetic parameters included the Cmax, time to Cmax (Tmax), AUC through the last measurable observed concentration (AUCt), AUCinf, t1/2, CL, and VZ. For taniborbactam, using the urine observations, the amount excreted unchanged in urine (Ae), fraction excreted unchanged in urine as the percentage of administered dose (Fe), renal clearance (CLR), and nonrenal clearance (CLNR) were calculated. The actual sample times were used to calculate the pharmacokinetic parameters. […] If a good estimate of λZ could not be determined for a concentration-time profile, then none of the pharmacokinetic parameters dependent on λZ were calculated.
(§3) For Dialysis subjects (Group 5), the effect of hemodialysis was examined by comparing differences within each subject (On-Dialysis versus Off-Dialysis). The CLd was calculated by taking the individual averaged arterial to venous concentration extraction ratio (CER), multiplying by the reported Qb, and correcting for hematocrit (hct). The hct was estimated as 0.47, an assumption based on the fact that all subjects in the group were male. The amounts of drug removed by hemodialysis (Adial) were calculated using the area under the excretion rate curves, where the rates were determined using the spot dialysis concentrations and estimated dialysate volumes over a 1 min period using the Qd. The fraction of drug removed during hemodialysis, or HER, was then determined by dividing Adial by dose and was expressed as a percentage.

[3] = system: Ambler Class A, C, and D serine-β-lactamases, and the Ambler class B metallo-β-lactamases; details: including VIM and NDM; cited from earlier work
[4] = Dialysis parameters (dialysis clearance, hemodialysis extraction ratio); assay type: in vivo, human
Protocol: as §1
Human dipotassium ethylenediaminetetraacetic acid plasma samples were processed using protein precipitation prior to assay. Urine samples collected for pharmacokinetic analysis in the study were processed and assayed for only taniborbactam using a validated bioanalytical method. […] Acidified urine and dialysate samples were processed using solid-phase extraction prior to assay.
(§4) Validated LC-MS/MS methods (LLOQ = 5.00 ng/mL) were used to quantitate the concentrations of taniborbactam in urine.
as §3

[5] = human, in vivo
From the text: Subjects aged 18 to 80 years were enrolled into 1 of 4 groups based on the level of renal function (renal groups). […] Subjects in the Normal group were matched to subjects with renal impairment with regard to gender, age (±10 years), and weight (±10 kg). A single healthy subject may have been the match for more than one subject with renal impairment.
Human dipotassium ethylenediaminetetraacetic acid plasma samples were processed using protein precipitation prior to assay. Urine samples collected for pharmacokinetic analysis in the study were processed and assayed for only taniborbactam using a validated bioanalytical method. […]
as §4
as §2, with “calculated.” for “calculated. The actual sample times were used to calculate the pharmacokinetic parameters.”, “calculated. […]” for “calculated.”

[6] = Urine pharmacokinetics (renal clearance) of taniborbactam by renal group; assay type: in vivo, human; details: single 2 h IV infusion 2 g cefepime + 0.5 g taniborbactam, geometric mean (geometric CV %)
Protocol: Urine was collected to further assess taniborbactam pharmacokinetics. Subjects were instructed to empty their bladders completely before study drug administration and just before the end of each collection interval. Urine from each timed interval was collected in a separate container. The exact start dates, stop dates, times of urine collection, and the weight and volume of each collection were recorded. Urine samples were collected within intervals of 0 to 6 h, 6 to 12 h, 12 to 24 h, 24 to 48 h, 48 to 72 h, and 72 to 96 h following the SOI. […] Urine samples were not collected from anuric subjects.
[…]. […] […].

[7] = Safety and tolerability in subjects with various degrees of renal impairment; details: human, in vivo
Protocol: Safety was assessed based on the occurrence of adverse events and on the evaluation of laboratory tests (chemistry, hematology, urinalysis, and coagulation), physical examinations, vital signs, and 12-lead ECGs. Safety was followed through 7 days post-dose.

[8] = Dialysis group, Off-dialysis (n = 7)
[9] = Dialysis group, On-dialysis (n = 6)

CO/N=C(\C(=O)N[C@@H]1C(=O)N2C(C(=O)[O-])=C(C[N+]3(C)CCCC3)CS[C@H]12)c1csc(N)n1 [cefepime, Cefepime, reference compound]
amount removed during a hemodialysis session ([1]; 3 h hemodialysis session): approximately 68% | dose excreted unchanged in urine ([1]; following administration of 0.25 to 2 g cefepime): at least 80% | AUC(0-inf) ([2]; male, human, plasma, iv, Dialysis group, Off-dialysis (n = 7)): 4550 µg·h/mL | Cmax ([2]; male, human, plasma, iv, Dialysis group, Off-dialysis (n = 7), read-out: Cmax): 165 µg/mL | AUC(0-inf) ([2]; male, human, plasma, iv, Dialysis group, On-dialysis (n = 6)): 1600 µg·h/mL | Cmax ([2]; male, human, plasma, iv, Dialysis group, On-dialysis (n = 6), read-out: Cmax): 105 µg/mL

NCCN[C@H]1CC[C@H](CC(=O)N[C@H]2Cc3cccc(C(=O)O)c3OB2O)CC1 [taniborbactam, Taniborbactam]
dose recovered in urine as unchanged parent compound ([1]; at steady-state): approximately 89% | β-lactamase inhibition [3]: potent competitive inhibition | hemodialysis extraction ratio (HER), fraction of dose removed during hemodialysis, mean (SD) ([4]; On-dialysis period, 4 h hemodialysis session): 49.7% | dialysis clearance (CLd), mean (SD) ([4]; On-dialysis period, 4 h hemodialysis, Qb 350 to 450 mL/min): 102 (5.3) mL/min | dialyzability ([4]; hemodialysis): dialyzable | AUCinf [2, 8]: 2003 (32.1) h·μg/mL | CL [2, 8]: 0.245 (29.8) L/h | Cmax [2, 8]: 37.7 (73.7) μg/mL | VZ [2, 8]: 23.7 (13.4) L | t1/2 [2, 8]: 70.8 (22.3) h | AUCinf [2, 9]: 851 (23.0) h·μg/mL | CL [2, 9]: 0.579 (23.0) L/h | Cmax [2, 9]: 23.4 (9.5) μg/mL | VZ [2, 9]: 68.1 (15.1) L | t1/2 [2, 9]: 83.7 (21.5) h | decrease in geometric mean AUC following hemodialysis ([2]; Dialysis group, On-dialysis vs Off-dialysis): 58% | AUCinf least-squares GMR (90% CI) ([2]; On-dialysis/Off-dialysis): 39.29% | VZ least-square geometric mean ratio (90% CI) [5]: 149.94% | CLR ([6]; Mild renal impairment (n = 6)): 4.23 (22.7) L/h | CLR ([6]; Moderate renal impairment (n = 6)): 1.59 (21.0) L/h | CLR ([6]; Normal renal function (n = 7)): 4.37 (17.8)^d L/h | CLR ([6]; Severe renal impairment (n = 6)): 0.76 (120.3) L/h

cefepime-taniborbactam
adverse events considered related to treatment [7]: 7 of 8 | adverse events mild in severity [7]: 7 of 8 | deaths [7]: no deaths | number of treatment emergent adverse events [7]: 8 | serious adverse events [7]: No subjects experienced serious adverse events | subjects who experienced treatment emergent adverse events [7]: 7 subjects
